# In US20150038545A1, “HYDROXYPHENYL PYRROLE COMPOUNDS CONTAINING AN HYDROXAMIC ACID AS HDAC INHIBITORS AND MEDICINAL APPLICATIONS THEREOF” (UNIVERSIDAD DEL PAÍS VASCO, priority 2011, published 2015):
# How the values were obtained:
# KB = test: Cancer cell growth inhibition (CellTiter-Glo), KB; format: cell-based, Human; details: Homo sapiens, Oral Cancer, 72 h treatment
# Method: Cell culture-based assays were used to evaluate the ability of compounds of the invention to inhibit cancer cell growth.
# Cells were obtained from the American Type Culture Collection (ATCC). Cells were cultured at 37° C. with 5% CO2 in the appropriate growth medium (see table below), and harvested respectively during the logarithmic growth period and counted with hemocytometer. The cell viability was examined by trypan blue exclusion. Cell concentrations were adjusted to 5.56×10^4 cells/ml with respective medium.
# Stock solutions of test compounds and positive drugs Doxorubicin (Zhejiang, Haizheng, China), Cisplatin (Nanjing Zhiyao, China) and Mitomycin (Zhejiang, Haizheng, China) were prepared in dimethyl sulphoxide (DMSO) or PBS at 20 mM.
# In order to determine the IC50 for each compound, experiments were carried out in 96-well plates and the cell lines seeded at a density of 5,000 cells/well. […] All treatments were performed in triplicate. 10 μl of drug solution was added to each well and incubated for 72 hours. At the end of the incubation, 100 μl of the CellTiter-Glo Reagent were added to each well and the contents were mixed for 2 munites on an orbital shaker to induce cell lysis. The plate was incubated at room temperature for 10 minutes to stabilize luminiscent signal, and luminiscent was recorded. […] In order to calculate IC50 values, dose-responsive curves were fitted using nonlinear regression model with a sigmoidal dose response.
# Human HDAC7 = target: T1, Human HDAC7 (Homo sapiens, UniProt Q8WUI4); test: In vitro HDAC7 inhibition, fluorogenic peptide assay; format: biochemical; details: for IC50: read-out: IC50 (nM) of enzyme activity HDAC7
# T1 construct: Amino acids 518-end with N-terminal GST tag, MW=78 kDa; GST (N); purchased BioMol, Hamburg, Germany
# T1 sequence (Q8WUI4 518-952 limits assumed): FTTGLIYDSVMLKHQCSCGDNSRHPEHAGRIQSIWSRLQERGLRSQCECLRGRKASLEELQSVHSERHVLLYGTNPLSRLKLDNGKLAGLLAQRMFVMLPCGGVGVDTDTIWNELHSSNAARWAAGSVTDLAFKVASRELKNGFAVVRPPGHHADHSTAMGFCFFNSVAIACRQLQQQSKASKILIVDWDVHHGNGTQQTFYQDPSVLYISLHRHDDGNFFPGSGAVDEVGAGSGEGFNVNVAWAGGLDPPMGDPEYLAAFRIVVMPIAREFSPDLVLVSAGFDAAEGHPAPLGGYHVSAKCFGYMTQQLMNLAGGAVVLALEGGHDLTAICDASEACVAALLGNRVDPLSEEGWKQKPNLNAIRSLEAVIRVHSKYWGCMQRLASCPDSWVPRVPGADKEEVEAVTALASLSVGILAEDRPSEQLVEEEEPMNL
# Method: All HDAC assays were performed using acetylated AMC-labeled peptide substrate: • Substrate for isoforms HDAC1, 2, 3, 4, 5, 6, 7, 9, 10, 11 and HeLa nuclear extract assays: Acetylated fluorogenic peptide from p53 residues 379-382 (RHKKAc) (BioMol. Cat. # KI-104). • Substrate for HDAC8 assays: Acetylated fluorogenic peptide from p53 residues 379-382 (RHKAcKAc) (BioMol. Cat. # KI-178).
# Enzymes: • HDAC1 assay: 75 nM Human HDAC1 (GenBank Accession No. NM_004964): Full length with C-terminal GST tag, MW=79.9 kDa, expressed by baculovirus expression system in Sf9 cells (BioMol. Cat. # SE-456). • HDAC2 assay: 5 nM Human HDAC2 (GenBank Accession No. Q92769): Full length with C-terminal His tag, MW=60 kDa, expressed by baculovirus expression system in Sf9 cells (BioMol. Cat. # SE-500). • HDAC3 assay: 2.3 nM Human HDAC3/NcoR2 (GenBank Accession No. NM_003883 for HDAC3, GenBank Accession No.NM_006312 for NcoR2): Complex of human HDAC3, full length with C-terminal His tag, MW=49.7 kDa, and human NCOR2, N-terminal GST tag, MW=39 kDa, co-expressed in baculovirus expression system (BioMol. Cat. # SE-507). • HDAC4 assay: 266 nM Human HDAC4 (GenBank Accession No. NM_006037): Amino acids 627-1085 with N-terminal GST tag, MW=75.2 kDa, expressed in baculovirus expression system (BioMol, Hamburg, Germany). • HDAC5 assay: 588 nM Human HDAC5 (GenBank Accession No. NM_001015053): Full length with Nterminal GST tag, MW=150 kDa, expressed by baculovirus expression system in Sf9 cells (BioMol, Hamburg, Germany). • HDAC6 assay: 13 nM Human HDAC6 (GenBank Accession No. BC069243): Full length with N-terminal GST tag, MW=159 kDa, expressed by baculovirus expression system in Sf9 cells (BioMol. Cat. # SE-508). • HDAC7 assay: 962 nM Human HDAC7 (GenBank Accession No. AY302468): Amino acids 518-end with N-terminal GST tag, MW=78 kDa, expressed in baculovirus expression system (BioMol, Hamburg, Germany). • HDAC8 assay: 119 nM Human HDAC8 (GenBank Accession No. NM018486): Full length, MW=42 kDa, expressed in an E. coli expression system (BioMol. […]
# The reactions were carried out in a 96-well microplate for fluorometry in a 50 μl reaction volume. […] The reaction was allowed to develop for 45 minutes at 30° C. with 5% CO2; then the fluorescent signal was measured with an excitation wavelength at 360 nm and an emission wavelength at 460 nm in a microplate-reading fluorometer (GeminiXS; Molecular Devices, Sunnyvale, Calif.). […] IC50 was calculated by fitting the experimental data to a dose-response curve. […]
IC50 (KB),IC50 (Human HDAC7),Selectivity against HDAC6 (IC50 HDACx/IC50 HDAC6) HDAC7 (Human HDAC7; IC50 HDAC7/IC50 HDAC6),Structure (SMILES)
0.95 µM,–,–,"O=C(CCCCCNC(=O)c1[nH]c(-c2ccccc2)cc1-c1ccc(O)cc1)NO [Example 1, N-(6-(hydroxyamino)-6-oxohexyl)-3-(4-hydroxyphenyl)-5-phenyl-1H-pyrrole-2-carboxamide]"
0.87 µM,72 nM,–,"O=C(CCCCCNC(=O)c1[nH]c(-c2ccc(O)cc2)cc1-c1ccoc1)NO [Example 5, 3-(3-furyl)-N-(5-(hydroxycarbamoyl)pentyl)-5-(4-hydroxy-phenyl)-1H-pyrrole-2-carboxamide]"
–,1410 nM,70.3,"COc1ccc(-c2cc(-c3ccccc3)[nH]c2C(=O)NCCCCCC(=O)NO)cc1 [Compound A, N-[6-(hydroxyamino)-6-oxohexyl]-3-(4-methoxyphenyl)-5-phenyl-1H-pyrrole-2-carboxamide, reference compound]"
2.23 µM,–,–,"O=C(CCCCCNC(=O)c1[nH]c(-c2ccc(O)cc2)cc1-c1ccccc1)NO [Example 2, N-(6-(hydroxyamino)-6-oxohexyl)-5-(4-hydroxyphenyl)-3-phenyl-1H-pyrrole-2-carboxamide]"
1.45 µM,318 nM,–,"O=C(CCCCCNC(=O)c1[nH]c(-c2ccc(O)cc2)cc1-c1ccsc1)NO [Example 6, N-(5-(hydroxycarbamoyl)pentyl)-5-(4-hydroxyphenyl)-3-(3-thienyl)-1H-pyrrole-2-carboxamide]"
